Values of other authors, collected in paper PMC12650809, “Evolving Therapeutic Landscape of ROS1-Positive Non-Small Cell Lung Cancer: An Updated Review” (Current Oncology, 2025).
pIC50: −log10 of the molar value. Where two headings read alike, the source gives them in different places. Marks after values point to notes of the source that are not given here.

Key:
ROS1-positive NSCLC [1] = test system: ROS1-positive NSCLC
[2] = test system: advanced ROS1-positive NSCLC; parameters: method as in PMID 31669155
ROS1-positive NSCLC [3] = test system: ROS1-positive NSCLC; parameters: method as in PMID 35227966
ROS1^G2032R = test system: ROS1^G2032R; parameters: method as in PMID 38070596; conditions: solvent-front substitution
ROS1^L2086F = test system: ROS1^L2086F; parameters: method as in PMID 38070596; conditions: for resistance or activity with L2086F: ATP-binding pocket
ROS1-positive NSCLC [4] = test system: ROS1-positive NSCLC; parameters: method as in doi:10.1200/JCO.2024.42.16_suppl.8519; conditions: 32 TKI-naïve patients
ROS1-positive NSCLC [5] = test system: ROS1-positive NSCLC; parameters: method as in earlier work; conditions: WCLC 2025 Abstract 4540; for ORR if G2032R Mutation (%): TKI-pretreated patients with G2032R; for IC-ORR (%) / mPFS (Months) / TKI-Pretreated ORR (%): TKI-pretreated patients
[6] = test system: advanced ROS1-rearranged NSCLC; parameters: method as in PMID 38197815
ROS1-positive NSCLC [7] = test system: ROS1-positive NSCLC; remark: listed apart in the source
[8] = test system: ROS1^G2032R and D2033N mutations; conditions: preclinical, in vitro
wild-type ROS1 = test system: wild-type ROS1; parameters: method as in PMID 36511802; conditions: preclinical studies
ROS1-positive NSCLC [9] = test system: ROS1-positive NSCLC; remark: listed apart in the source
ROS1^G2032R mutation = test system: ROS1^G2032R mutation; parameters: method as in PMID 36511802; conditions: preclinical studies
[10] = previously treated with crizotinib
[11] = after at least one prior ROS1-targeted TKI
[12] = ROS1 TKI-naïve patients, n = 71
[13] = previously treated with a ROS1-targeted TKI, n = 56
[14] = grade ≥ 3, ref WCLC 2025 Abstract 4540
[15] = 117 TKI-pretreated patients, WCLC 2025 Abstract 4540
[16] = TKI-naïve patients, n = 35, preliminary, WCLC 2025 Abstract 4540
[17] = TKI-naïve patients, preliminary, WCLC 2025 Abstract 4540
[18] = most common AEs, ref WCLC 2025 Abstract 4540

C[C@H]1Oc2cc(cnc2N)-c2c(nn(C)c2C#N)CN(C)C(=O)c2ccc(F)cc21 [Lorlatinib, lorlatinib]
Notable AEs: cognitive effects (ROS1-positive NSCLC [1]): 27%
Notable AEs: dizziness (ROS1-positive NSCLC [1]): 12%
Notable AEs: hypercholesterolemia (ROS1-positive NSCLC [1]): 80%
Notable AEs: mood disorders (ROS1-positive NSCLC [1]): 16%
Notable AEs: weight gain (ROS1-positive NSCLC [1]): 23%
Discontinuation for AEs (%) (ROS1-positive NSCLC [1]; WCLC 2025 Abstract 4540): 1%
Main Grade ≥ 3 AEs: hypercholesterolemia (ROS1-positive NSCLC [1]; grade ≥ 3): 15%
Main Grade ≥ 3 AEs: hypertriglyceridemia (ROS1-positive NSCLC [1]; grade ≥ 3): 19%
Main Grade ≥ 3 AEs: weight gain (ROS1-positive NSCLC [1]; grade ≥ 3): 7%
ORR ([2]; 21 TKI-naïve patients): 62%
median DOR ([2]; TKI-naïve patients): 25.3 months
median PFS ([2]; TKI-naïve patients): 21.0 months
intracranial ORR ([2]; TKI-naïve, BMs at baseline): 64%
efficacy against ROS1^G2032R mutation ([2]; patients with secondary resistance mutations to crizotinib): limited efficacy
treatment discontinuation due to AEs ([2]; pivotal trial): 1%
ORR [2, 10]: 35%
intracranial ORR [2, 10]: 50%
median DOR [2, 10]: 13.8 months
activity in patients harboring ROS1^K1991E and ROS1^S1986F mutations ([2]; secondary resistance mutations to crizotinib): showed activity in some patients
ORR (ROS1-positive NSCLC [3]; 80 patients after at least one prior ROS1-targeted TKI): 45%
intracranial ORR (ROS1-positive NSCLC [3]; [11]): 72%
median OS (ROS1-positive NSCLC [3]; [11]): 19.6 months
median PFS (ROS1-positive NSCLC [3]; [11]): 7.1 months
median intracranial DOR (ROS1-positive NSCLC [3]; non-irradiated brain metastases): 20.6 months
treatment discontinuation due to AEs (ROS1-positive NSCLC [3]; real-world cohort): 13%
resistance or sensitivity with ROS1^G2032R (ROS1^G2032R): high-level resistance
resistance or sensitivity conferred by ROS1^L2086F (ROS1^L2086F; L2086F alone or in combination with G2032R or S1986F, preclinical models): cross-resistance
ORR (ROS1-positive NSCLC [4]): 69%
median PFS (ROS1-positive NSCLC [4]): 35.8 months
ORR if G2032R Mutation (%) (ROS1-positive NSCLC [5]): 0%
IC-ORR (%) (ROS1-positive NSCLC [5]): 50%
mPFS (Months) (ROS1-positive NSCLC [5]): 8.5 Months

C[C@H]1CNC(=O)c2cnn3ccc(nc23)N[C@H](C)c2cc(F)ccc2O1 [Repotrectinib, repotrectinib]
Notable AEs: dizziness (ROS1-positive NSCLC [1]): 58%
Notable AEs: dysgeusia (ROS1-positive NSCLC [1]): 50%
Notable AEs: paresthesia (ROS1-positive NSCLC [1]): 30%
Discontinuation for AEs (%) (ROS1-positive NSCLC [1]; WCLC 2025 Abstract 4540): 7%
Main Grade ≥ 3 AEs: anemia (ROS1-positive NSCLC [1]; grade ≥ 3): 4%
Main Grade ≥ 3 AEs: dizziness (ROS1-positive NSCLC [1]; grade ≥ 3): 3%
treatment discontinuation due to AEs [6]: 7%
response rate ([6]; 17 patients harboring ROS1^G2032R): 59%
dizziness ([6]; AEs, mostly grade 1–2): 58%
dysgeusia ([6]; AEs, mostly grade 1–2): 50%
paresthesia ([6]; AEs, mostly grade 1–2): 30%
ORR [6, 12]: 79%
median DOR [6, 12]: 34.1 months
median PFS [6, 12]: 35.7 months
intracranial response rate ([6]; TKI-naïve, measurable BMs at baseline): 89%
ORR [6, 13]: 38%
median PFS [6, 13]: 9 months
resistance or sensitivity with ROS1^G2032R (ROS1^G2032R): some sensitivity
TKI-Naive ORR (%) (ROS1-positive NSCLC [7]; TKI-naïve patients): 79%
mPFS (Months) (ROS1-positive NSCLC [7]; TKI-naïve patients): 35.7 Months
IC-ORR (%) (ROS1-positive NSCLC [7]; TKI-naïve patients evaluable for intracranial ORR): 89 ^d %
resistance or activity with L2086F (ROS1^L2086F): cross-resistance
ORR if G2032R Mutation (%) (ROS1-positive NSCLC [5]): 59%
IC-ORR (%) (ROS1-positive NSCLC [5]): 38%
TKI-Pretreated ORR (%) (ROS1-positive NSCLC [5]): 38%
mPFS (Months) (ROS1-positive NSCLC [5]): 9.0 Months
inhibitory activity against ROS1^G2032R and D2033N mutations [8]: potent inhibitory activity

CCn1ncc2c1-c1cnc(N)c(c1)O[C@H](C)c1cc(F)ccc1-c1nn(C)nc1C2 [Zidesamtinib, zidesamtinib]
Discontinuation for AEs (%) (ROS1-positive NSCLC [1]; WCLC 2025 Abstract 4540): 2%
Notable AEs: constipation (ROS1-positive NSCLC [1]; WCLC 2025 Abstract 4540): 17%
Notable AEs: peripheral edema (ROS1-positive NSCLC [1]; WCLC 2025 Abstract 4540): 36%
Main Grade ≥ 3 AEs: CPK elevation (ROS1-positive NSCLC [1]; [14]): CPK elevation (3%), dyspnea (3%)
Main Grade ≥ 3 AEs: dyspnea (ROS1-positive NSCLC [1]; [14]): CPK elevation (3%), dyspnea (3%)
Notable AEs: CPK elevation (ROS1-positive NSCLC [1]; ref WCLC 2025 Abstract 4540): 16%
Notable AEs: dyspnea (ROS1-positive NSCLC [1]; ref WCLC 2025 Abstract 4540): 15%
Notable AEs: fatigue (ROS1-positive NSCLC [1]; ref WCLC 2025 Abstract 4540): 16%
inhibitory activity (wild-type ROS1): subnanomolar
12-month DOR rate (ROS1-positive NSCLC [9]; [15]): 78%
ORR (ROS1-positive NSCLC [9]; [15]): 44%
12-month DOR rate (ROS1-positive NSCLC [9]; [16]): 96%
ORR (ROS1-positive NSCLC [9]; [16]): 89%
CNS progression events at data cutoff (ROS1-positive NSCLC [9]; [17]): no CNS progression events
IC-ORR (ROS1-positive NSCLC [9]; [17]): 83%
intracranial complete responses (number) (ROS1-positive NSCLC [9]; [17]): four
constipation (ROS1-positive NSCLC [9]; [18]): 17%
creatine phosphokinase elevation (ROS1-positive NSCLC [9]; [18]): 16%
dyspnea (ROS1-positive NSCLC [9]; [18]): 15%
fatigue (ROS1-positive NSCLC [9]; [18]): 16%
peripheral edema (ROS1-positive NSCLC [9]; [18]): 36%
treatment discontinuations (ROS1-positive NSCLC [9]; most common reason: pneumonia, ref WCLC 2025 Abstract 4540): 2%
dose reductions (ROS1-positive NSCLC [9]; ref WCLC 2025 Abstract 4540): 10%
resistance or sensitivity with ROS1^G2032R (ROS1^G2032R): some sensitivity
resistance or activity with L2086F (ROS1^L2086F): cross-resistance
ORR if G2032R Mutation (%) (ROS1-positive NSCLC [5]): 83%
IC-ORR (%) (ROS1-positive NSCLC [5]): 48%
TKI-Pretreated ORR (%) (ROS1-positive NSCLC [5]): 44%
mPFS (Months) (ROS1-positive NSCLC [5]): 9.7 Months
pIC50 (ROS1^G2032R mutation): 8.10
